Experimental data: patent US20240207157A1, “ORAL CARE AGENT” (priority 2021, published 2024)

How the values were obtained:
[1] = humans, after drinking four cups of coffee; cited from earlier work
TGFβ1 = test: Q-PCR, TGFβ1 mRNA expression in HaCaT cells; format: cell-based, human
VEGF [2] = test: Q-PCR, VEGF mRNA expression in HaCaT cell lysates; format: cell-based, human
Description: (§1) For Q-PCR: Determination of VEGF, HGF and EGF mRNA expression in cell lysates • 2. For ELISA: Determination of VEGF, HGF and EGF protein synthesis/secretion into the culture medium
(§2) The initial cell count was • 1. for Q-PCR: 140,000 cells/well in 1500 μl culture medium • 2. for ELISA: 140,000 cells/well in 1.500 μl culture medium.
(§3) The trial duration for • 1. Q-PCR was 24 hours (single treatment at time 0 h) • 2. ELISA was 48 hours (double treatment at time 0 h and 24 h without changing the medium).
(§4) The study was carried out • 1. for Q-PCR by determining VEGF mRNA expression in cell lysates • 2. for ELISA by determining VEGF protein synthesis/secretion in the culture medium.

TGFβ2 = test: Q-PCR, TGFβ2 mRNA expression in HaCaT cells; format: cell-based, human
[3] = test system: human epidermal HaCaT keratinocytes; test: colorimetric MTT viability study on HaCaT keratinocytes
Description: To investigate the effect of caffeine on the biological functions of human epidermal HaCaT keratinocytes, cell experiments were performed on human epidermal HaCaT keratinocytes, wherein the following studies were carried out: • 1.
The initial cell count was 5000 cells/well in 100 μl culture medium.
The culture medium was HaCaT medium (DMEM with the addition of 10% FBS, 1% penicillin-streptomycin, 0.5% fungizone).
The treatment groups were as follows: • 1. Control group (CTRL) • 2. 0.00005% caffeine • 3. 0.0001% caffeine • 4. 0.0005% caffeine • 5. 0.001% caffeine • 6. 0.005% caffeine
The trial durations were 24, 48 and 72 hours.
The study took the form of a colorimetric MTT study.

GM-CSF [4] = test: ELISA, GM-CSF experiments in HaCaT cells; format: cell-based, human; settings: 48 h
Description: as §1, §2, §3

GM-CSF [5] = test: Q-PCR, GM-CSF experiments in HaCaT cells; format: cell-based, human; settings: all tested caffeine concentrations, 24 h, Experiments 1 and 2
Description: as §1, §2, §3

VEGF [6] = test: ELISA, VEGF protein synthesis/secretion into the culture medium of HaCaT cells; format: cell-based, human; settings: 48 hours
Description: as §1, §2, §3, §4

[7] = test system: human epidermal HaCaT keratinocytes; test: fluorometric CyQUANT cell proliferation study (DNA content); format: cell-based; settings: 0.00005, 0.0005, 0.005% caffeine; 24, 48 or 72 hours; best effects after 72 hours
Description: To investigate the effect of caffeine on cell proliferation of human epidermal HaCaT keratinocytes, human HaCaT keratinocytes were subjected to a CyQUANT viability assay, wherein the following series of experiments were performed: • 1. P22 Experiment 1 (biological assay 1) • 2. P24 Experiment 2 (biological assay 2).
The trial durations were 24, 48 or 72 hours.
The study was carried out by fluorometric CyQUANT study, wherein the DNA content was measured, reflecting cell proliferation.

[8] = 0.0005% caffeine, both experiments

For Cn1c(=O)c2c(ncn2C)n(C)c1=O [caffeine], the “caffeine concentration in the blood serum” value [1] is listed as 20 to 50 µmol/L, the “total amount corresponding to the serum concentration” value [1] is listed as 15-35 milligrams and the “mRNA expression of TGFβ1” value (TGFβ1; all tested caffeine concentrations, 24 h, Experiments 1 and 2) is listed as “None of the tested caffeine concentrations changed the mRNA expression of TGFβ1”. For the same compound, the “synthesis/production/secretion of TGFβ1” value (TGFβ1; taken together, Q-PCR and ELISA) was “does not alter”, the “mRNA expression of VEGF compared to the control group” value (VEGF [2]; all caffeine concentrations, 24 hours treatment, Experiments 1 and 2) was “appear to increase mRNA expression of VEGF” and the “synthesis and production/secretion of VEGF” value (VEGF [2]; certain concentrations of caffeine, Q-PCR and ELISA taken together) was “increase the synthesis and production/secretion of VEGF”. The “mRNA expression of TGFβ2” value (TGFβ2; certain caffeine concentrations, 24 h, Experiment 2) was “apparently increase mRNA expression of TGFβ2”, the “synthesis/production/secretion of TGFβ2” value (TGFβ2; taken together, contradictory results in the two Q-PCR experiments) was “most likely does not alter” and the cytotoxicity ([3]; 0.00005-0.005% caffeine, up to 72 hours) was “none of the concentrations tested showed cytotoxicity”. For the same compound, the “number of viable cells” value ([3]; certain concentrations of caffeine, MTT) was “increased the number of viable cells”, the “VEGF protein production/secretion compared to the control group (experiments regarding GM-CSF)” value (GM-CSF [4]; 0j.005% caffeine, Experiment 2) was “also showed an effect” and the “VEGF protein production/secretion compared to the control group (experiments regarding GM-CSF)” value (GM-CSF [4]; [8]) was “increased VEGF protein production/secretion”. The “mRNA expression of VEGF compared to the control group (experiments regarding GM-CSF)” value (GM-CSF [5]) was “apparently increased the mRNA expression of VEGF”, the “VEGF protein production/secretion compared to the control group” value (VEGF [6]; [8]) was “increases VEGF protein production/secretion” and the “VEGF protein production/secretion compared to the control group” value (VEGF [6]; 0.005% caffeine, Experiment 2) was “also showed an effect”. For the same compound, the cell proliferation [7] was “appears to promote cell proliferation”.
